Test results as given in US8778990B2, “Betulinic acid derivatives and methods of use thereof” (Trustees of Dartmouth College, priority 2008, dated 2014).

Test system: RAW264.7 macrophages
Assay: Inhibition of IFNγ-induced NO production (Griess reagent)
Assay type: cell-based
Settings: Mus musculus; RAW264.7, 20 ng/mL IFNγ, 2 h pre-treatment, 24 h
Experimental: RAW264.7 macrophages were pre-treated with DMSO or drugs at various concentrations (nM) for 2 hours, and subsequently treated with 20 ng/ml IFNγ for 24 hours. NO concentration in media was determined using a Griess reagent system; cell viability was determined using WST-1 reagent. The betulinic acid derivatives are identified by their TP numbers, as shown herein and described in Example 5.
Nitric Oxide Production and Cell Viability. RAW264.7 macrophages were pre-treated with DMSO or drugs for 2 hours, and subsequently treated with recombinant mouse IFN-γ (Sigma) for 24 hours. NO concentration in media was determined using the Griess reagent system (Promega). Cell viability was determined using WST-1 reagent (Roche).
For `C=C(C)[C@@H]1CC[C@]2(C(=O)n3ccnc3)CC[C@]3(C)[C@H](CC[C@@H]4[C@@]5(C)C=C(C#N)C(=O)C(C)(C)[C@@H]5CC[C@]43C)[C@@H]12` [TP-292], the IC50 was 71 to 100 nM.
With `C=C(C)[C@@H]1CC[C@]2(C(=O)NCC)CC[C@]3(C)[C@H](CCC4[C@@]5(C)C=C(C#N)C(=O)C(C)(C)[C@@H]5CC[C@]43C)[C@@H]12` (stereo partly shown) [TP-321, reference compound] the IC50 was 88 nM.
`C=C(C)[C@@H]1CC[C@]2(C(=O)NCC(F)(F)F)CC[C@]3(C)[C@H](CC[C@@H]4[C@@]5(C)C=C(C#N)C(=O)C(C)(C)[C@@H]5CC[C@]43C)[C@@H]12` [TP-342, 2-Cyano-N-(2,2,2-trifluoroethyl)-3-oxolupa-1,20(29)-dien-28-amide] gave an IC50 of 380 nM.
With `C=C(C)[C@@H]1CC[C@]2(C(=O)NCC(F)F)CC[C@]3(C)[C@H](CC[C@@H]4[C@@]5(C)C=C(C#N)C(=O)C(C)(C)[C@@H]5CC[C@]43C)[C@@H]12` [TP-343, 2-Cyano-N-(2,2-difluoroethyl)-3-oxolupa-1,20(29)-dien-28-amide] the IC50 was 130 nM.
With `C=C(C)[C@@H]1CC[C@]2(C(=O)NCCF)CC[C@]3(C)[C@H](CC[C@@H]4[C@@]5(C)C=C(C#N)C(=O)C(C)(C)[C@@H]5CC[C@]43C)[C@@H]12` [TP-344, 2-Cyano-N-(2-fluoroethyl)-3-oxolupa-1,20(29)-dien-28-amide] the IC50 was 180 nM.
Compound `C=C(C)[C@@H]1CC[C@]2(C#N)CC[C@]3(C)[C@H](CC[C@@H]4[C@@]5(C)C=C(C#N)C(=O)C(C)(C)[C@@H]5CC[C@]43C)[C@@H]12` [TP-345, 2-Cyano-3-oxolupa-1,20(29)-dien-28-onitrile] has an IC50 of 10 to 160 nM.

Test system: not listed separately
Assay: TP levels in mouse brain after dietary dosing (LC/MS)
Assay type: in vivo
Settings: CD-1 mice fed 200 or 400 mg/kg diet for 3.5 days; compared with TP-319
Experimental: CD-1 mice were fed either 200 or 400 mg/kg diet of either TP-319 or TP-500 for 3.5 days, and TP levels in the brains of the mice were analyzed by LC/MS. The structures of TP-319 and TP-500 are provided herein.
For `CC1(C)CC[C@]2(C(=O)NCC(F)(F)F)CC[C@]3(C)[C@H](C(=O)C=C4[C@@]5(C)C=C(C#N)C(=O)C(C)(C)[C@@H]5CC[C@]43C)[C@@H]2C1` [TP-500, reference compound], the “concentration in the brain” value was “significantly higher concentration in the brain than TP-319”.
